In brackets after ≈: the same amount, converted by molar mass. Activity calls are given as the source filed them. No cut-off for these calls is given here.
Tests used:
Bacillus cereus [1] = test: Induction of cell damage in Bacillus cereus ATCC 11778 assessed as increase in fluorescence intensity at MIC after 12 hrs using propidium iodide staining by flow cytometry analysis; type: functional
Escherichia coli [2] = test: Antibacterial activity against Escherichia coli ATCC 25922 after 18 hrs by microdilution method; type: functional; details: ATCC 25922, 18 h
Yersinia enterocolitica [3] = test: Induction of cell leakage in Yersinia enterocolitica MTCC 859 assessed as release of cellular materials at MIC after 8 to 16 hrs by UV/VIS spectrophotometer analysis; type: functional, organism-based
Escherichia coli [4] = test: Antibacterial activity against enterotoxic Escherichia coli MTCC 723 after 24 hrs; type: functional; details: MTCC 723, 24 h
Staphylococcus aureus [5] = test: Induction of cell damage in Staphylococcus aureus ATCC 6538 assessed as increase in fluorescence intensity at MIC after 12 hrs using propidium iodide staining by flow cytometry analysis; type: functional
Staphylococcus aureus [6] = test: Antibacterial activity against Staphylococcus aureus ATCC 6538 after 24 hrs; type: functional; details: ATCC 6538, 24 h
Escherichia coli [7] = test: Antibacterial activity against enterotoxic Escherichia coli MTCC 723 after 18 hrs by microdilution method; type: functional; details: MTCC 723, 18 h
Yersinia enterocolitica [8] = test: Induction of cell lysis in Yersinia enterocolitica MTCC 859 assessed as cell membrane damage at MIC by field emission scanning electron microscopy analysis; type: functional, organism-based
Bacillus cereus [9] = test: Antibacterial activity against Bacillus cereus ATCC 11778 after 18 hrs by microdilution method; type: functional; details: ATCC 11778, 18 h
Listeria monocytogenes [10] = test: Antibacterial activity against Listeria monocytogenes ATCC 19115 after 24 hrs; type: functional; details: ATCC 19115, 24 h
Staphylococcus aureus [11] = test: Induction of cell lysis in Staphylococcus aureus ATCC 6538 assessed as membrane disintegration and damage of cell wall at MIC by field emission scanning electron microscopy analysis; type: functional, organism-based
Bacillus cereus [12] = test: Antibacterial activity against Bacillus cereus ATCC 11778 after 24 hrs; type: functional; details: ATCC 11778, 24 h
Staphylococcus aureus [13] = test: Induction of cell leakage in Staphylococcus aureus ATCC 6538 assessed as release of cellular materials at MIC after 8 to 16 hrs by UV/VIS spectrophotometer analysis; type: functional, organism-based
Salmonella paratyphi [14] = test: Antibacterial activity against Salmonella paratyphi A MTCC 735 after 24 hrs; type: functional, Salmonella enterica subsp. enterica serovar Paratyphi A; details: Salmonella enterica, MTCC 735, 24 h
Escherichia coli [15] = test: Induction of cell damage in Escherichia coli ATCC 25922 assessed as increase in fluorescence intensity at MIC after 12 hrs using propidium iodide staining by flow cytometry analysis; type: functional
Yersinia enterocolitica [16] = test: Antibacterial activity against Yersinia enterocolitica MTCC 859 after 24 hrs; type: functional; details: MTCC 859, 24 h
Yersinia enterocolitica [17] = test: Induction of cell damage in Yersinia enterocolitica MTCC 859 assessed as increase in fluorescence intensity at MIC after 12 hrs using propidium iodide staining by flow cytometry analysis; type: functional
Escherichia coli [18] = test: Induction of cell damage in enterotoxic Escherichia coli MTCC 723 assessed as increase in fluorescence intensity at MIC after 12 hrs using propidium iodide staining by flow cytometry analysis; type: functional
Yersinia enterocolitica [19] = test: Antibacterial activity against Yersinia enterocolitica MTCC 859 after 18 hrs by microdilution method; type: functional; details: MTCC 859, 18 h
Listeria monocytogenes [20] = test: Antibacterial activity against Listeria monocytogenes ATCC 19115 after 18 hrs by microdilution method; type: functional; details: ATCC 19115, 18 h
Salmonella paratyphi [21] = test: Antibacterial activity against Salmonella paratyphi A MTCC 735 after 18 hrs by microdilution method; type: functional, Salmonella enterica subsp. enterica serovar Paratyphi A; details: Salmonella enterica, MTCC 735, 18 h
Staphylococcus aureus [22] = test: Antibacterial activity against Staphylococcus aureus ATCC 6538 after 18 hrs by microdilution method; type: functional; details: ATCC 6538, 18 h
Salmonella paratyphi [23] = test: Induction of cell damage in Salmonella paratyphi A MTCC 735 assessed as increase in fluorescence intensity at MIC after 12 hrs using propidium iodide staining by flow cytometry analysis; type: functional, Salmonella enterica subsp. enterica serovar Paratyphi A
Escherichia coli [24] = test: Antibacterial activity against Escherichia coli ATCC 25922 after 24 hrs; type: functional; details: ATCC 25922, 24 h
Listeria monocytogenes [25] = test: Induction of cell damage in Listeria monocytogenes ATCC 19115 assessed as increase in fluorescence intensity at MIC after 12 hrs using propidium iodide staining by flow cytometry analysis; type: functional

SMILES	RFU (Bacillus cereus [1])	MIC (Escherichia coli [2]) [µg/mL]	Activity (Yersinia enterocolitica [3])	MBC (Escherichia coli [4]) [µg/mL]	RFU (Staphylococcus aureus [5])	MBC (Staphylococcus aureus [6]) [µg/mL]	MIC (Escherichia coli [7]) [µg/mL]	Activity (Yersinia enterocolitica [8])	MIC (Bacillus cereus [9]) [µg/mL]	MBC (Listeria monocytogenes [10]) [µg/mL]	Activity (Staphylococcus aureus [11])	MBC (Bacillus cereus [12]) [µg/mL]	Activity (Staphylococcus aureus [13])	MBC (Salmonella paratyphi [14]) [µg/mL]	RFU (Escherichia coli [15])	MBC (Yersinia enterocolitica [16]) [µg/mL]	RFU (Yersinia enterocolitica [17])	RFU (Escherichia coli [18])	MIC (Yersinia enterocolitica [19]) [µg/mL]	MIC (Listeria monocytogenes [20]) [µg/mL]	other results
C=C1CC[C@H]2C(C)(C)CCC[C@]2(C)[C@H]1C/C=C(/C=O)CC=O	117	25 (≈ 82.7 µM)	Active	25 (≈ 82.7 µM)	114	25 (≈ 82.7 µM)	25 (≈ 82.7 µM)	Active	12.5 (≈ 41.3 µM)	25 (≈ 82.7 µM)	Active	12.5 (≈ 41.3 µM)	Active	12.5 (≈ 41.3 µM)	146	25 (≈ 82.7 µM)	80.7	139	12.5 (≈ 41.3 µM)	25 (≈ 82.7 µM)	MIC (Salmonella paratyphi [21]): 12.5 µg/mL (≈ 41.3 µM); MIC (Staphylococcus aureus [22]): 12.5 µg/mL (≈ 41.3 µM); RFU (Salmonella paratyphi [23]): 78.5; MBC (Escherichia coli [24]): 50 µg/mL (≈ 165 µM); RFU (Listeria monocytogenes [25]): 70.9
CC1(C)CCC[C@@]2(C)[C@H]1CC[C@@]1(CO1)[C@@H]2C/C=C(/C=O)CC=O [AFRAMODIAL]	118	12.5 (≈ 39.3 µM)	Active	6.75 (≈ 21.2 µM)	119	6.75 (≈ 21.2 µM)	6.75 (≈ 21.2 µM)	Active	6.75 (≈ 21.2 µM)	12.5 (≈ 39.3 µM)	Active	6.75 (≈ 21.2 µM)	Active	12.5 (≈ 39.3 µM)	187	3.38 (≈ 10.6 µM)	117	153	3.38 (≈ 10.6 µM)	12.5 (≈ 39.3 µM)	MIC (Salmonella paratyphi [21]): 6.75 µg/mL (≈ 21.2 µM); MIC (Staphylococcus aureus [22]): 3.38 µg/mL (≈ 10.6 µM); RFU (Salmonella paratyphi [23]): 87.6; MBC (Escherichia coli [24]): 12.5 µg/mL (≈ 39.3 µM); RFU (Listeria monocytogenes [25]): 89.9
